Experimental data reported in patent publication US8440853B2, “Ester compound and use thereof” (Sumitomo Chemical Company, Limited, priority 2010, dated 2013).

Assays:
Format in all cases: in vivo
[1] = system: German cockroaches (Blattella germanica); test: Knock-down test, oil solution sprayed on German cockroaches (Test Example 2); details: adult German cockroaches, 0.1% (w/v) oil solution, 1.5 ml sprayed
Procedure: Zero point one (0.1) part of the compound of the present inventions (1), (2),(3) and (5) was dissolved in 10 parts of isopropyl alcohol and the solution was mixed with 89.9 parts of deodorized kerosene to prepare a 0.1% (w/v) oil solution.
Ten adult German cockroaches (Blattella germanica, 5 males and 5 females) were released in a test container (diameter 8.75 cm, 7.5 cm high, the bottom face is made of 16 mesh metallic wire), the inner face on which butter was applied, and the container was set at the bottom of a test chamber (bottom face: 46 cm×46 cm, height: 70 cm).
Each 1.5 ml of the oil solution of the compound of the present invention (1), (2), (3) and (5) was sprayed using a spray gun at a pressure of 0.4 kg/cm^2 from 60 cm higher than the upper face of the container. Thirty seconds after the spraying, the container was pulled out from the chamber. Two minutes after spraying, the number of knocked-down cockroaches was counted and a knock-down ratio was determined (repeated once). A knocked-down ratio was calculated by the following equation. Knocked-down ratio (%)=(Number of knocked-down cockroaches/Number of test cockroaches)×100 The results (2 minutes after spraying) are shown in Table 2.

[2] = system: common mosquitoes (Culex pipens pallens); test: Knock-down test, oil solution sprayed into glass chamber with common mosquitoes (Test Example 3); details: adult female common mosquitoes, 0.00625% (w/v) oil solution sprayed into 70 cm cubic glass chamber
Procedure: Zero point zero zero six two five(0.00625) part of the compound of the present invention (1) was dissolved in 10 parts of isopropyl alcohol, and the solution was mixed with 89.99375 parts of deodorized kerosene to prepare a 0.00625% (w/v) oil solution.
Ten adult female common mosquitoes (Culex pipens pallens) were released in a cubic glass chamber having each side of 70 cm. The oil solution of the compound of the present invention (1) was sprayed into the chamber through a small window on the side of the chamber using a spraying gun at a pressure of 0.9 kg/cm^2. Ten minutes after spraying, the number of knocked-down mosquitoes was counted and a knock-down ratio was determined. A knocked-down ratio was calculated by the following equation. Knocked-down ratio (%)=(Number of knocked-down mosquitoes/Number of test mosquitoes)×100

[3] = system: houseflies (Musca domestica); test: Knock-down test, oil solution sprayed into glass chamber with houseflies (Test Example 4); details: adult houseflies, 0.00625% (w/v) oil solution, 0.7 ml sprayed into 70 cm cubic glass chamber
Procedure: Zero point zero zero six two five(0.00625) part of the compound of the present invention (1), (3) and (4) was dissolved in 10 parts of isopropyl alcohol, and the solution was mixed with 89.99375 parts of deodorized kerosene to prepare a 0.00625% (w/v) oil solution.
Ten adult houseflies (Musca domestica) were released in a cubic glass chamber having each side of 70 cm, and 0.7 ml of the oil solution of the compound of the present invention (1), (3) and (4) was sprayed into the chamber through a small window on the side of the chamber using a spraying gun at a pressure of 0.9 kg/cm^2. Seven minutes after spraying, the number of knocked-down flies was counted and a knock-down ratio was determined. A knocked-down ratio was calculated by the following equation. Knocked-down ratio (%)=(Number of knocked-down flies/Number of test flies)×100

[4] = system: American cockroaches (Periplaneta Americana); test: Knock-down test, oil solution sprayed on American cockroaches (Test Example 1); details: adult American cockroaches, 0.1% (w/v) oil solution, 1.5 ml sprayed
Procedure: Zero point one (0.1) part of the compound of the present inventions (1) was dissolved in 10 parts of isopropyl alcohol and the solution was mixed with 89.9 parts of deodorized kerosene to prepare a 0.1% (w/v) oil solution.
Six adult American cockroaches (Periplaneta Americana, 3 males and 3 females) were released in a test container (diameter 12.5 cm, 10 cm high, the bottom face is made of 16 mesh metallic wire), the inner face on which butter was applied, and the container was set at the bottom of a test chamber (bottom face: 46 cm×46 cm, height: 70 cm). One point five (1.5) ml of the oil solution of the compound of the present invention (1) was sprayed using a spray gun at a pressure of 0.4 kg/cm^2 from 60 cm higher than the upper face of the container. Thirty seconds after the spraying, the container was pulled out from the chamber. Ten minutes after spraying, the number of knocked-down cockroaches was counted and a knock-down ratio was determined (repeated twice). The knocked-down ratio was calculated by the following equation. Knocked-down ratio (%)=(Number of knocked-down cockroaches/Number of test cockroaches)×100

Row | SMILES | Knock-down ratio (%) 2 minutes after spraying [1] [%] | Knock-down ratio (%) 10 minutes after spraying [2] [%] | Knock-down ratio (%) 7 minutes after spraying [3] [%] | Knock-down ratio (%) 10 minutes after spraying [4] [%]
1 | CCSC(C#N)=C[C@@H]1[C@@H](C(=O)OCc2c(F)c(F)c(C)c(F)c2F)C1(C)C (relative stereo) [compound of the present invention (5), 4-methyl-2,3,5,6-tetrafluorobenzyl=(1R)-trans-3-[(1EZ)-2-cyano-2-(ethylthio)ethenyl]-2,2-dimethylcyclopropane carboxylate] | 100 |  |  | 
2 | COCc1c(F)c(F)c(COC(=O)[C@@H]2[C@@H](/C=C(\C#N)SC)C2(C)C)c(F)c1F [compound of the present invention (1), 4-methoxymethyl-2,3,5,6-tetrafluorobenzyl=(1R)-trans-3-[(1E)-2-cyano-2-(methylthio)ethenyl]-2,2-dimethylcyclopropane carboxylate] | 100 | 94 | 100 | 100
3 | CCCCSC(C#N)=C[C@@H]1[C@@H](C(=O)OCc2c(F)c(F)c(COC)c(F)c2F)C1(C)C [compound of the present invention (2), 4-methoxymethyl-2,3,5,6-tetrafluorobenzyl=(1R)-trans-3-[(1EZ)-2-cyano-2-(butylthio)ethenyl]-2,2-dimethylcyclopropane carboxylate] | 100 |  |  | 
4 | CCSC(C#N)=C[C@@H]1[C@@H](C(=O)OCc2c(F)c(F)c(COC)c(F)c2F)C1(C)C [compound of the present invention (3), 4-methoxymethyl-2,3,5,6-tetrafluorobenzyl=(1R)-trans-3-[(1EZ)-2-cyano-2-(ethylthio)ethenyl]-2,2-dimethylcyclopropane carboxylate] | 100 |  | 95 | 
